Positions count from the first letter of the chain named.
Key:
[1] = molecular target: T1, HarA (harmaline-metabolizing enzyme, copper amine oxidase) (Arthrobacter sp., UniProt A0A5A4PV14); assay: resonance Raman and anaerobic UV-vis spectroscopy; format: binding; settings: covalent imine adduct with TPQ, difference against Y379F
T1 construct: purified from strain C-4A, or recombinant from E. coli BL21-CodonPlus(DE3)-RIL (pETDuet-harA); 71 kDa subunit, 130 kDa native, homodimer; TPQ cofactor from Y379, Cu2+
T1 sequence (A0A5A4PV14 1-649): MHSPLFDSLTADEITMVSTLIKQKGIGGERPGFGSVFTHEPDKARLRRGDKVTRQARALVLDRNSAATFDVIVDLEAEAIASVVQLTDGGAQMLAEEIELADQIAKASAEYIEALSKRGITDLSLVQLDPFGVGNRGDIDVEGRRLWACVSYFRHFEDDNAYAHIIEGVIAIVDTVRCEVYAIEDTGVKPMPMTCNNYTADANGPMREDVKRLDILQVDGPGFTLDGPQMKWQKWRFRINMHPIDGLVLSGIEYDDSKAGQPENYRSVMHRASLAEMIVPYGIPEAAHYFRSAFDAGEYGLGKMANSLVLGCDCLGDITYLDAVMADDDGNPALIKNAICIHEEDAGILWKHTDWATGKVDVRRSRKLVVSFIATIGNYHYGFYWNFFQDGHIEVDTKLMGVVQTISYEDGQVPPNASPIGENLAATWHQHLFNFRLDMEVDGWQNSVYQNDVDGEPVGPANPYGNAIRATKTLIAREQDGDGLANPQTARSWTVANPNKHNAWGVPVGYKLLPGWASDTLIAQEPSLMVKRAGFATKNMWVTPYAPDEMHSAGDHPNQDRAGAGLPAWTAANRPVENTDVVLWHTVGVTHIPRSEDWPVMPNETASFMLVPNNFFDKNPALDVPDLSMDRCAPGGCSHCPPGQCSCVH

[2] = molecular target: T2, ECAO (copper amine oxidase from E. coli) (Escherichia coli, UniProt P46883); assay: LC/MS or HPLC product detection; format: biochemical; settings: 0.5 mg/mL enzyme
T2 construct: gene tynA; recombinant, pET24a(+)-tynA in E. coli BL21-CodonPlus(DE3)-RIL, purified; TPQ cofactor
T2 sequence (P46883 31-757): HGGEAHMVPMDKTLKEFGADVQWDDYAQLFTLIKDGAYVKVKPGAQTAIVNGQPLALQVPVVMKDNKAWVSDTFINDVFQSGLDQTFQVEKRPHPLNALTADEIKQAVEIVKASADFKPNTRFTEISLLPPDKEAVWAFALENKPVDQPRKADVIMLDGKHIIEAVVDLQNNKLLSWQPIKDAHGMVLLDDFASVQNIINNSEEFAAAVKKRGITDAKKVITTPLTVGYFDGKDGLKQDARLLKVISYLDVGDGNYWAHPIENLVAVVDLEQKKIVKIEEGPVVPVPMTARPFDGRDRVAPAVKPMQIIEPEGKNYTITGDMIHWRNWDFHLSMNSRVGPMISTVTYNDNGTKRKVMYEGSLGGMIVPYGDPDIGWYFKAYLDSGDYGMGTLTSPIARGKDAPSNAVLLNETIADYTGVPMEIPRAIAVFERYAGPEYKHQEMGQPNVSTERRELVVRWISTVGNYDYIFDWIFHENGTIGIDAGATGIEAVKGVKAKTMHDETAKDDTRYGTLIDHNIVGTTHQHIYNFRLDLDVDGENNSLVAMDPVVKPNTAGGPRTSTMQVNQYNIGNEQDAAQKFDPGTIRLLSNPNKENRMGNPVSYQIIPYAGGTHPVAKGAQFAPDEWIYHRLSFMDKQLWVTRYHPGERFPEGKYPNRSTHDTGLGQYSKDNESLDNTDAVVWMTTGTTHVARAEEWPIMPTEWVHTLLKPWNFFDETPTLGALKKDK

[3] = molecular target: T1, HarA (harmaline-metabolizing enzyme, copper amine oxidase); assay: LC/MS/MS of chymotryptic nonapeptide; phenylhydrazine titration; format: binding; settings: covalent; adduct with TPQ cofactor (Y379); […] Tris-HCl pH […] digest
[4] = molecular target: T3, HarA (harmaline-metabolizing enzyme, copper amine oxidase) (Arthrobacter sp., UniProt A0A5A4PV14, D295E); assay: LC/MS product detection; format: biochemical; settings: […] Hepes-NaOH pH […] °C
T3 construct: purified from strain C-4A, or recombinant from E. coli BL21-CodonPlus(DE3)-RIL (pETDuet-harA); 71 kDa subunit, 130 kDa native, homodimer; TPQ cofactor from Y379, Cu2+
T3 sequence (A0A5A4PV14 1-649 D295E): T1 sequence (A0A5A4PV14 1-649) with D295E

[5] = test system: C=C1CCCCN1; assay: purified protein; settings: 20 mM Hepes-NaOH pH 7.0, 28 °C, O2 co-substrate, named as the enamine tautomer, treated in the paper as a cyclic imine
[6] = test system: COc1ccc2c3c([nH]c2c1)C(C)=NCC3; assay: purified protein; settings: 20 mM Hepes-NaOH pH 7.0, 28 °C, O2 co-substrate

For `NCc1ccccc1` [BA, benzylamine], the “resonance Raman and anaerobic UV-vis spectroscopy” value [1] was “we observed a benzylamine adduct, which would be the inactive deprotonated imine intermediate, in HarA”.

In the case of `COc1ccc2c3c([nH]c2c1)C(C)=NCC3` [harmaline], the “LC/MS or HPLC product detection” value [2] is reported as “The purified ECAO was able to convert harmaline into 2-AIMA”.

With `NNc1ccccc1` [phenylhydrazine] the “LC/MS/MS of chymotryptic nonapeptide; phenylhydrazine titration” value [3] was “TPQ was also detected as a phenylhydrazine adduct in the nonapeptide”.

For `NCCc1c[nH]c2ccccc12` [tryptamine], the LC/MS product detection [4] was “D295E mutant catalyzed deamination of tryptamine, although the activity was less than that of wild-type”.

For “HarA (harmaline-metabolizing enzyme, copper amine oxidase) (Arthrobacter sp.)”, the Km [5] was 1700 µM and the Km [6] was 439 µM.
